Reference: US9751837B2, “Kinase inhibitors” (RESPIVERT LIMITED, priority 2014, dated 2017)
pIC50: −log10 of the molar value.

Experiments:
[1] = Hydrolytic stability study (DMSO/water 3:1, 60° C.); assay type: physicochemical
Description: Chemical stability of compounds of the invention was assessed in a mixture of DMSO and water (3:1) at a test compound concentration of 1 mg/mL.
General HPLC Procedure • Agilent, Waters X-Select C18, 2.5 μm, 4.6×30 mm column, 4 min method, 5-95% MeCN/water (0.1% formic acid). Flow rate 2.5 mL/min. Column Oven Temperature 40° C. Detection 254 nm.
Sample Preparation • A 1.0 mg sample of test compound was dissolved in 750 μL of DMSO. Water (250 μL) was added slowly, ensuring no precipitation occurred.
Recording Stability • A 50 μL aliquot of the test solution was removed and analysed in duplicate by 5 μL HPLC injections. The peak area for the test compound was recorded following manual integration of the corresponding UV trace. • The test solution was heated to 60° C., with stirring, and 50 μL aliquots removed for HPLC analysis at 5 and 24 h timepoints.

p38 MAPKα (MAPK14) = p38 MAPKα (MAPK14) (Homo sapiens (Human), UniProt Q16539); assay: p38 MAPKα enzyme inhibition (Method 2), Z-LYTE FRET; assay type: biochemical
p38 MAPKα (MAPK14), sequence (Q16539 whole entry): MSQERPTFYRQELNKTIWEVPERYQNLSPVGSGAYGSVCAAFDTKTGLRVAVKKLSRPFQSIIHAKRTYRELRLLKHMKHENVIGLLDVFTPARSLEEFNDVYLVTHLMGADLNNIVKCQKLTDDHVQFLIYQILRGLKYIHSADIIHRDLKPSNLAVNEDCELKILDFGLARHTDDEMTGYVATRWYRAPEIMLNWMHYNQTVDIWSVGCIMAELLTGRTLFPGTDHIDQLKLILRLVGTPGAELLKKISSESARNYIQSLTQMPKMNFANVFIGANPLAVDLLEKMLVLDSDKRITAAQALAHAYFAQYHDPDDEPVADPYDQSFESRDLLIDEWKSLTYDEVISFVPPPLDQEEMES
Description: (§1) The enzyme inhibitory activities of compounds disclosed herein are determined by FRET using synthetic peptides labelled with both donor and acceptor fluorophores (Z-LYTE, Invitrogen Ltd., Paisley, UK).
The following two assay variants can be used for determination of p38 MAPKα inhibition.
The inhibitory activities of test compounds against the p38 MAPKα isoform (MAPK14: Invitrogen) are evaluated indirectly by determining the level of activation/phosphorylation of the down-stream molecule, MAPKAP-K2. The p38 MAPKα protein (80 ng/mL, 2.5 μL) is mixed with the test compound (2.5 μL of either 4 μg/mL, 0.4 μg/mL, 0.04 μg/mL or 0.004 μg/mL) for 2 hr at RT. […] The mixture is incubated for 1 hr at RT. Development reagent (protease, 5 μL) is added for 1 hr prior to detection in a fluorescence microplate reader (Varioskan® Flash, ThermoFisher Scientific). […]
(§2) In all cases, the site-specific protease cleaves non-phosphorylated peptide only and eliminates the FRET signal. Phosphorylation levels of each reaction are calculated using the ratio of coumarin emission (donor) over fluorescein emission (acceptor), for which high ratios indicate high phosphorylation and low ratios indicate low phosphorylation levels.

c-Src = c-Src (Homo sapiens (Human), UniProt P12931); assay: c-Src enzyme inhibition, Z-LYTE FRET; assay type: biochemical
c-Src, sequence (P12931 whole entry, looked up): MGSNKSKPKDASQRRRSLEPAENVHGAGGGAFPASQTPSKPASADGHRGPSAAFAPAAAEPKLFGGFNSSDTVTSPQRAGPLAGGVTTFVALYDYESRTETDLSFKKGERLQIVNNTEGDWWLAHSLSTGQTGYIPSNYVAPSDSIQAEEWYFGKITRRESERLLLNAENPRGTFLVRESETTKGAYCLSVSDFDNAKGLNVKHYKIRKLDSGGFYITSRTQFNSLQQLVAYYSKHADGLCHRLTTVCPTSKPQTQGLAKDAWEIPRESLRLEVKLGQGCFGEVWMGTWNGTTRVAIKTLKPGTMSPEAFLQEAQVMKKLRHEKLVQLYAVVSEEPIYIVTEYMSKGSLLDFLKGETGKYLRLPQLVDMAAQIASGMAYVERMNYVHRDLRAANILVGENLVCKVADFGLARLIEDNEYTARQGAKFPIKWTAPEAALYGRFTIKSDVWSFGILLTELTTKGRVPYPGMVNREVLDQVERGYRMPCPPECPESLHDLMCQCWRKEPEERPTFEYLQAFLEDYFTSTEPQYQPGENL
Description: as §1
The inhibitory activities of compounds of the invention against c-Src and Syk enzymes (Invitrogen), are evaluated in a similar fashion to that described hereinabove. The relevant enzyme (3000 ng/mL or 2000 ng/mL respectively, 2.5 μL) is incubated with the test compound (either 1 μg/mL, 0.1 μg/mL, 0.01 μg/mL, or 0.001 μg/mL, 2.5 μL each) for 2 hr at RT. The FRET peptides (8 μM. 2.5 μL), and appropriate ATP solutions (2.5 μL, 800 μM for c-Src, and 60 μM ATP for Syk) are then added to the enzymes/compound mixtures and the mixture incubated for 1 hr. Development reagent (protease, 5 μL) is added for 1 hr prior to detection in a fluorescence microplate reader (Varioskan® Flash, ThermoFisher Scientific).
as §2

Syk = Syk (Homo sapiens (Human), UniProt P43405); assay: Syk enzyme inhibition, Z-LYTE FRET; assay type: biochemical
Description: as §1
The relevant enzyme (3000 ng/mL or 2000 ng/mL respectively, 2.5 μL) is incubated with the test compound (either 1 μg/mL, 0.1 μg/mL, 0.01 μg/mL, or 0.001 μg/mL, 2.5 μL each) for 2 hr at RT. […] Development reagent (protease, 5 μL) is added for 1 hr prior to detection in a fluorescence microplate reader (Varioskan® Flash, ThermoFisher Scientific).
as §2

[2] = Pharmacokinetics and total colon distribution after single oral administration; assay type: in vivo, male C57BL/6 mice; conditions: mice, oral 5 mg/kg; for total colon level: measured cpd = dosed cpd (1, 19, 47 as Na salt, 44 as NH4+ salt); for Mean blood concentration: measured cpd = dosed cpd (19, 47 as Na salt)
Description: Studies were conducted by Sai Life Sciences (Hinjewadi, Pune, India) to investigate the systemic pharmacokinetics and total colon tissue distribution of compounds of the invention. In particular, pharmacokinetic studies were carried out in male C57BL/6 mice following a single oral administration of the compound.

| Structure (SMILES) | decomposition under the conditions of the hydrolytic stability experiment [1] | pIC50 (p38 MAPKα (MAPK14)) | pIC50 (c-Src) | pIC50 (Syk) | total colon level ([2]; 0.5 h) | Mean blood concentration ([2]; 0.5 h) | total colon level ([2]; 1 h) | Mean blood concentration ([2]; 1 h) | total colon level ([2]; 2 h) | Mean blood concentration ([2]; 2 h) | total colon level ([2]; 4 h) | Mean blood concentration ([2]; 4 h) | total colon level ([2]; 6 h) | Mean blood concentration ([2]; 6 h) | total colon level ([2]; 8 h) | Mean blood concentration ([2]; 8 h) | total colon level ([2]; 12 h) | Mean blood concentration ([2]; 12 h) | total colon level ([2]; 24 h) | Mean blood concentration ([2]; 24 h) |
| --- | --- | --- | --- | --- | --- | --- | --- | --- | --- | --- | --- | --- | --- | --- | --- | --- | --- | --- | --- | --- |
| C#Cc1cc(Nc2nccc(Oc3ccc(NC(=O)Nc4cc(C(C)C)nn4-c4ccc(C)cc4)c4ccccc34)n2)cc(C(=O)NCCN2CCOCC2)c1 [Reference Compound B, 3-ethynyl-5-((4-((4-(3-(3-isopropyl-1-(p-tolyl)-1H-pyrazol-5-yl)ureido)naphthalen-1-yl)oxy)pyrimidin-2-yl)amino)-N-(2-morpholinoethyl)benzamide] | substantial decomposition |  |  |  |  |  |  |  |  |  |  |  |  |  |  |  |  |  |  |  |
| COc1cc(Nc2cc(Oc3ccc(NC(=O)Nc4cc(C(C)(C)C)cc(NS(C)(=O)=O)c4OC)c4ccccc34)ccn2)ccc1C(=O)NCCOCCOCCOP(=O)(O)O [Example 19, 2-(2-(2-(4-((4-((4-(3-(5-(tert-Butyl)-2-methoxy-3-(methylsulfonamido)phenyl)ureido)naphthalen-1-yl)oxy)pyridin-2-yl)amino)-2-methoxybenzamido)ethoxy)ethoxy)ethyl dihydrogen phosphate] |  | 8.10 | 7.66 | 8.10 | 0.0 ng/g | 0.0 ng/mL | 0.0 ng/g | 0.0 ng/mL | 0.0 ng/g | 0.0 ng/mL | 0.0 ng/g | 0.0 ng/mL | 0.0 ng/g | 0.0 ng/mL | 0.0 ng/g | 0.0 ng/mL | 0.0 ng/g | 0.0 ng/mL | 0.0 ng/g | 0.0 ng/mL |
